Patent US6080780A, “Use of nitroflavonoids for the treatment of anxiety” (University of Strathclyde, priority 1995, dated 2000)
“Also recorded” adds a separate entry of the source. Where two headings read alike, the source gives them in different places.

Experiments:
[1] = biological target: central benzodiazepine receptor; test: [3H]-FNZ binding to crude synaptosomal membranes from rat CNS regions; parameters: species or system rat (Wistar); conditions: read-out: Ki, [3H]-FNZ binding
Procedure: (§1) Adult male Wistar rats weighing 250 g were used for biochemical experiments. Adult male Swiss male weighing 25-30 g were used for pharmacological assays except for inhibitory avoidance and tail flick tests were done in rats. Animals were housed in a controlled environment, with free access to food and water and maintained on a 12 h/12 h day/night cycle.
Displacement curves were performed using [^3 ]-FNZ or [^3 H]-zolpidem ([^3 H]-ZOLP) as radioligands in washed crude synaptosomal membranes from rat cerebral cortex, cerebellum, hippocampus, striatum or spinal cord. Membrane preparations were carried out according to Medina et al. (1990). Briefly, brains were rapidly dissected out on ice and the different structures were homogenized in 10 volumes of 0.32 M sucrose and centrifuged at 900×g for 10 min. The resulting supernatant was centrifuged at 100,000×g for 30 min and the pellet washed twice in 25 mM Tris HCl buffer pH 7.4 at 100,000×g for 30 min, and stored at -20° C. until used.
For [^3 H]-FNZ (84 Ci/mmol, NEN) displacement curves, different concentrations of DNF (0.3 nM to 1 μM) were added to 0.3 mg membrane protein suspended in 1 ml of 25 mM Tris HCl buffer in presence of 0.6 nM of the radioligand. Protein determination was carried out by using the method of Lowry et al. (1951). Nonspecific binding (<5%) was determined in parallel incubations with 10 μM FNZ (Hoffmann-La Roche). The incubation was carried out at 4° C. for 2 h. The assays were determined by filtration under vacuum through Whatman GF/A glass fiber filters, and two washes with 3 ml each of incubation medium. Filters were dried and counted after the addition of 5 ml 2,5-diphenyl-oxazole (PPO)-xylene as scintillation fluid.

GABAλ receptors = test: [3H]-muscimol binding; conditions: 20 μM; data not shown
Procedure: (§2) Additional binding studies were performed as described elsewhere: [^3 ]-prazosin binding for α1 adrenergic receptors (Medina et al., 1984), [^3 H]-dihidroalprenolol binding for β adrenergic receptors (Medina et al. 1984), [^3 H]-quinuclinidyl benzylate binding for muscarinic cholinergic receptors (Jerusalinksy et al., 1983), [^3 H]-muscimol binding for GABAλ receptors (Medina et al., 1983) and [^3 H]-8-Hydroxydipropylaminotetralin ([^3 H]--OH--DPAT) binding for serotonin (5-HTlλ) receptors (Nenonene et al., 1984).

mice [2] = test: Sodium thiopental-induced sleeping time; type: in vivo; conditions: for Sleeping Time / Latency: median (interquartile range); for Sleeping Time: VEH 190; for Latency: VEH 233
Procedure: (§3) Sodium thiopental (Abbott) (22 mg/kg) was i.p. injected 15 min after vehicle or DNF. The disappearance and reappearance of the righting reflex were considered indications of latency and duration of sleep, respectively (Anca et al., 1993).
(§4) Mice were injected with sodium thiopental (TP, 22 mg/kg i.p.) 15 min after vehicle (VEH) or 6,3'-dinitroflavone (DNF). The ceiling of sleeping time was 1800 s. Data are expressed in medians (interquartile range). ^3 number of animals per group.

[3] = Sodium thiopental-induced sleeping time; type: in vivo, mice; conditions: mouse, in vivo; thiopental sleep, locomotor activity and holeboard together; read-out: doses with slight depressant action relative to anxiolytic doses
Procedure: as §3, §4

mice [4] = test: Holeboard test in mice; type: in vivo, male Swiss mice; conditions: for number of head dips and time spent head-dipping: mice, i.p.
Procedure: as §1
(§5) The test was performed according to Viola et al. (1994) and Wolfman et al. (1994). The number of head dips and the time spent head dipping were counted during 5 min.

Holeboard test in mice = type: in vivo, male Swiss mice; conditions: mouse, in vivo, ip; 10 mg/kg vs anxiolytic dose; read-out: dose decreasing holeboard parameters relative to anxiolytic dose
Procedure: as §1, §5

α1 adrenergic receptors = test: [3H]-prazosin binding; conditions: 20 μM; data not shown
Procedure: as §2

mice [5] = test: Elevated plus maze test in mice (Section 2); type: in vivo, male Swiss mice
Procedure: as §1
An Opto-varimex® apparatus was used according to Viola et al. (1994). The apparatus discriminates between total and ambulatory activities. An increase in the number of transitions through the beams reflects augmented locomotor activity. In this and all following tests in mice, animals were i.p. injected with the vehicle, or with DNF 20 min before the beginning of the tests. In each session, control mice were tested in parallel with those animals receiving drug treatment.
The test was performed in the same session immediately after the locomotor activity measurement (Viola et al., 1994; Wolfman et al., 1994). […] A series of experiments with the injection of the selective central benzodiazepine receptor antagonist Ro 15-1788 (File and Pellow, 1986) was also carried out.

mice [6] = test: Elevated plus-maze test in mice (Section 1, incl. Table 1); type: in vivo, male Swiss mice; conditions: mice, i.p.
Procedure: Performance of mice on the elevated plus-maze test was used to measure anxiolytic actions in rodents, following i.p. administration of vehicle or compound (II).
The animals used in the pharmacological test were male Swiss mice from breeding stock, weighing 28-35 g. They were placed n groups of ten with free access to water and food, and maintained on 12 h/12 h day/night cycle. In all the tests the mice were i.p. injected with VEH or a solution of the drug, 15 minutes before the assay.
The elevated plus-maze set-up consisted of a maze of two open arms, 25×5 cm, crossed by two closed arms of the same dimensions, with free access to all arms from the crossing point. The closed arms had walls 35 cm high all around. The maze was suspended 50 cm from the room floor. Mice were placed on the central part of the cross facing an open arm. The number of entries and the time spent going into open and closed arms were counted during 5 minutes. […] The total exploratory activity (number of entries in both arms) was also determined.

mice [7] = test: Horizontal wire test in mice; type: in vivo, male Swiss mice
Procedure: as §1
This test was carried out as previously described (Viola et al., 1994; Wolfman et al., 1994; Viola et al., 1995). The test took place after two trials, performed at 5 min intervals. A myorelaxant drug will impair mice to grasp the wire (Bonetti et al., 1982). The effect of DNF )1 mg/kg) on DZ-induced myorelaxation was also determined.

## O=c1cc(-c2cccc([N+](=O)[O-])c2)oc2ccc([N+](=O)[O-])cc12 [Compound (II), 6,3'-dinitroflavone]
[1]; rat cerebral cortex
  Ki: 25.9 ± 3.1 nM
[1]; rat hippocampus
  Ki: 36.1 ± 5 nM
[1]; rat spinal cord
  Ki: 48.1 ± 5.5 nM
[1]; rat striatum and spinal cord (range over both)
  Ki: 44 to 48 nM
[1]; rat striatum
  Ki: 44.1 ± 4.9 nM
GABAλ receptors
  displacement of [3H]-muscimol binding: did not displace
Mice [2]; 1 mg/kg
  latency or sleeping time (in words): did not change the latency or the sleeping time
Mice [2]; DNF 1 mg/kg + TP 22 mg/kg, n=7
  Sleeping Time: 207 (20/600) s
  Latency: 230 (164/300) s
Mice [2]; DNF 3 mg/kg + TP 22 mg/kg, n=12
  Latency: 237 (202/293) s
Mice [2]; DNF 3 mg/kg + TP 22 mg/kg, n=12, p<0.05
  Sleeping Time: 1277 (248/1800) s
Mice [2]; i.p., 3 mg/kg
  latency to sleep (in words): No changes were observed in latency to sleep
Mice [2]; i.p., 3 mg/kg, p<0.05
  sleeping time (in words): augmented the sleeping time
[3]
  selectivity ratio: 100 to 300
Mice [4]; 10 mg/kg, p<0.01
  number of head dips and time spent head-dipping: decreased both parameters
Mice [4]; up to 3 mg/kg
  number of head dips and time spent head-dipping: did not change the number of head dips and the time spent head-dipping
Mice [4]; ratio to diazepam, higher dose
  dose to produce similar sedative effects in comparison to DZ: 10 fold
Holeboard test in mice
  selectivity ratio: 300
α1 adrenergic receptors
  displacement of [3H]-prazosin binding: did not displace
Mice [5]; mice, DNF 30 μg/kg + Ro 15-1788 1 mg/kg, listed as DNF, 1 mg/kg
  effect of Ro 15-1788 on DNF anxiolytic effect: blocked by the injection of Ro 15-1788; also recorded: blocked by the administration of the selective benzodiazepine antagonist Ro 15-1788
Mice [5]; mice, i.p., 30 μg/kg
  total arm entries: No differences were observed in the total arm entries
Mice [5]; mice, i.p., 30 μg/kg, p<0.01
  percentage of entries in the open arms: increased the percentage of entries in the open arms
Mice [5]; ratio to diazepam
  anxiolytic potency in comparison to DZ: 30 times
Mice [6]; 3 and 30 μg/kg
  percentage of the time spent in the open arms: enhanced the percentage of the time spent in the open arms
Mice [6]; doses 0 to 30 μg/kg
  total arm entries: without affecting the total arm entries
Mice [6]; doses 0 to 30 μg/kg, 15 min before test
  percentage of entries in the open arms: increased the percentage of entries in the open arms
Mice [7]; mice, DNF plus DZ (1 mg/kg), listed as DNF
  effect on DZ-induced myorelaxation: counteracted; also recorded: able to reverse the myorelaxant effect of the full agonist DZ; also recorded: prevents the muscle relaxation effect of a full benzodiazepine receptor agonist
Mice [7]; mice, i.p., DNF plus DZ (1 mg/kg), p<0.001
  animals showing myorelaxant effect, DNF plus DZ: 2 animals out of 15
Mice [7]; mice, i.p., up to 10 mg/kg
  percentage of mice grasping the wire: did not affect the percentage of mice grasping
Mice [7]; up to 10 mg/kg
  myorelaxant effects: did not evidence anticonvulsant, myorelaxant
